Assay results reported in patent publication US20220152022A1.
Values joined by “and” are separate entries in the source; they are usually repeats but may differ in a detail not shown here. Identical values can stand only once. Counter-ions that a name gives are not always drawn.

Assays:
Format in all cases: in vivo, human
[1] = tested on: Overweight and Obese Adults; experiment: Dose-ranging phase 1 clinical study (NCT02475317), multiple oral doses for 7 days; conditions: for treatment-emergent adverse events: all doses, 7 days; for Mean serum 7αC4: change from baseline to day 7, greatest change at maralixibat 50 mg BID; for Mean sBA levels: versus baseline, day 7
[2] = tested on: Participants with Primary Sclerosing Cholangitis (PSC); experiment: CAMEO 14-week single-arm open-label phase 2a proof-of-concept study
Description: Participants were adults aged 18-80 years with a diagnosis of PSC. PSC diagnosis included a documented history of alkaline phosphatase (ALP) levels greater than 1.5 times above the upper limit of normal, biliary obstruction, and histological findings consistent with PSC diagnosis (if previously biopsied). The study enrolled 27 adults.
Efficacy was assessed by measuring at baseline and throughout the study sBA concentration, serum 7αC4 concentration (a marker of de novo bile acid synthesis), serum aoutotaxin concentration, LDL-C concentration, serum total cholesterol concentration, serum liver enzyme concentrations, and pruritus severity. Pruritus severity was determined by calculating Adult Itch Reported Outcome (ITCHRO) weekly sum scores and average daily scores (mean score over a 7-day period). Participants self-reported the ITCHRO daily on a scale 0-10 (0=no pruritus; 10=most severe pruritus).
Outcomes were assessed in the overall study population and in subgroups of participants (A) with any pruritus at baseline or (B) with an ITCHRO average daily score ≥4 out of 10 at baseline. Efficacy endpoints were based on change from baseline to week 14 or early termination (ET) and were analyzed using paired t-tests or Wilcoxon signed rank tests.

[3] = tested on: Children with Progressive Familial Intrahepatic Cholestasis; experiment: INDIGO phase 2 open-label efficacy and safety study of maralixibat
Source text: The HRQoL used was the […] QUALITY OF LIFE INVENTORY (PedsQL).

[4] = tested on: Children with Alagille Syndrome; experiment: ICONIC phase 2b randomized placebo-controlled drug-withdrawal study with long-term extension
Description: Children aged 1-18 years with a diagnosis of ALGS and evidence of cholestasis were eligible to enroll in the ICONIC clinical study, see Tables 12-14. During a long-term extension, participants with sBA levels above the upper limit of normal and/or an ITCHRO(OBS) score >1.5 were eligible for the 400 μg/kg BID dose (all participants received the 400 μg/kg BID dose). Inclusion criteria for the ICONIC study included having cholestasis, which was defined as at least one of 1) sBA concentration (total sBA) >3× the upper limit of normal, 2) serum conjugated bilirubin concentration >1 mg/dL, 3) fat-soluble vitamin deficiency not otherwise explained, 4) serum gamma-glutamyl transferase concentration >3× the upper limit of normal, and 3) intractable pruritus explainable only by liver disease. Inclusion criteria also included having significant pruritus, which was defined as an average daily score of >2 on the ITCHRO(OBS) scale for 2 consecutive weeks (0=no pruritus; 4=most severe pruritus). Exclusion criteria included having surgically disrupted enterohepatic circulation, a liver transplant, decompensated cirrhosis, or having any liver disease other than ALGS.
sBA responders were defined as those patients achieving ≥50% reduction from baseline in sBA at week 12 or 18. ITCHRO responders were defined as those patients achieving at least a 1-point reduction from Baseline in weekly morning ITCHRO(OBS) score at week 12 or 18.
In the open label extension, the effect of higher doses was explored by increasing dosage to a maximum of 400 μg/kg BID in eligible participants.
Efficacy assessments were based on changes from baseline in sBA concentration, weekly average ITCHRO(OBS) scores (0, none; 4, most severe), CSS score (0, none; 4 most severe), and Clinician Xanthoma Scale score (0, none; 4, disabling). […] During the long-term extension, efficacy assessments were conducted every 12 weeks. Serum total cholesterol and serum 7αC4 concentration were also monitored during the ICONIC clinical study, among other measures.
sBA were measured using a fully validated liquid chromatography-electrospray ionization-mass electrospray (LC-ESI-MS) method using stable-isotope dilution analysis to measure serum concentrations of principal bile acids (cholic, chenodeoxycholic, ursodeoxycholic, deoxycholic acid, lithocholic, and their corresponding glycine and taurine conjugates). Serum samples were analyzed in the Division of Pathology and Laboratory Medicine, Cincinnati Children's Hospital Medical Center according to SOP #PATH.CMS.1033. Calibration standards of individual bile acids were in the range of 50-25,000 ng/mL and Quality Control samples were prepared at concentrations of 100, 500, 1000, 2500, and 20000 ng/mL. The intra- and inter-assay imprecision of the method for individual bile acids measured was within the accepted GLP quality assurance guidelines of <15% coefficient of variance for these QC samples. The lower limit of quantification of the assay was set at 100 ng/mL and the imprecision at this concentration was <20%. The limit of detection of the assay was 5 ng/mL. Total sBA is represented by the sum of the individual bile acid species measured.

Question: What does the source list for CCCC[C@]1(CC)CS(=O)(=O)c2ccc(N(C)C)cc2[C@@H](c2cccc(NC(=O)N[C@@H]3O[C@H](COS(=O)(=O)O)[C@@H](O)[C@H](OCc4ccccc4)[C@H]3O)c2)[C@H]1O (stereo in doubt) [volixibat, (2R,3R,4S,5R,6R)-4-benzyloxy-6-{3-[3-((3 S,4R,5R)-3-butyl-7-dimethylamino-3-ethyl-4-hydroxy-1,1-dioxo-2,3,4,5-tetrahydro-1H-benzo[b]thiepin-5-yl)-phenyl]-ureido}-3,5-dihydroxy-tetrahydro-pyran-2-ylmethyl) hydrogen sulfate]?
Answer: treatment-emergent adverse events [1]: All treatment-emergent adverse events were mild, and none were serious; Mean serum 7αC4 [1]: increased; Mean sBA levels [1]: not elevated

Question: Which tolerability ([2]; adults with PSC, up to 10 mg/day, 14 weeks) does the source give for CCCCC1(CCCC)CS(=O)(=O)c2ccc(N(C)C)cc2[C@@H](c2ccc(OCc3ccc(C[N+]45CCN(CC4)CC5)cc3)cc2)[C@H]1O.[Cl-] [maralixibat] here?
Answer: well tolerated

Question: What about the “Changes in serum total bilirubin, alanine aminotransferase, aspartate aminotransferase, and alkaline phosphatase concentrations” value ([2]; all participants) of the same molecule?
Answer: not statistically significant

Question: What about the “participants with worsening of pruritus by >1 point” value ([2]; baseline to week 14) of the same molecule?
Answer: No participants

Question: What about the “participants with ITCHRO average daily score improved by >1 point” value ([2]; count of all participants) of the same molecule?
Answer: 8 out of 27

Question: And the “participants with ITCHRO average daily score improved by >3 points” value ([2]; count of all participants)?
Answer: 6 of 27

Question: What about the “Mean conjugated bilirubin levels, increase” value ([2]; overall population) of the same molecule?
Answer: 0.19 mg/dL

Question: What about the conjugated bilirubin levels ([2]; participants with ITCHRO daily score ≥0 at baseline (so in the source)) of the same molecule?
Answer: no significant change

Question: And the autotaxin levels ([2]; participants with ITCHRO daily score ≥4 at baseline)?
Answer: significant reductions

Question: What about the treatment-emergent adverse events [1] of the same molecule?
Answer: All treatment-emergent adverse events were mild, and none were serious

Question: What about the “Mean serum 7αC4” value [1] of the same molecule?
Answer: increased

Question: And the “Mean sBA levels” value [1]?
Answer: not elevated

Question: What about the multi-parameter response ([3]; all PFIC 1 patients and all patients harboring a truncating ABCB11 mutation) of the same molecule?
Answer: not multi-parameter responders

Question: And the “serum ALT, AST, and bilirubin concentrations over time” value ([3]; all low-dose responders, e.g. within 2-6 months of first administration)?
Answer: normalized or only mildly elevated

Question: What about the “height Z-score” value ([3]; high dose responder, following treatment response on sBA) of the same molecule?
Answer: increase in height Z-score

Question: What about the Response ([3]; individual PFIC 2 participants, one line each, max dose 280 or 560 μg/kg/day (Table 6), No reponse [sic] / Rapid complete response / Good response / No response until 560 reached) of the same molecule?
Answer: Rapid (4×) and No (19×) and Good

Question: And the “cholestasis markers after dose increase” value ([3]; low-dose responder losing response in long-term extension, raised to 280 μg/kg BID at between 640 and 730 days)?
Answer: sBA concentration decreased, severity of pruritus decreased, serum 7αC4 concentration increased, and 7αC4:sBA ratio increased

Question: And the “growth (height Z-score change relative to baseline)” value ([3]; low-dose responders (FIG. 4))?
Answer: improved growth relative to baseline

Question: What about the “7αC4 concentrations at 48 weeks” value ([3]; low-dose responders (range, 3-43)) of the same molecule?
Answer: 14 × baseline

Question: And the multi-parameter responders ([3]; mild PFIC 2 patients, 280 μg/kg QD)?
Answer: 1 of 7

Question: And the “responders only after higher dose (high-dose responder)” value ([3]; moderate PFIC 2 patients, 280 μg/kg twice daily)?
Answer: 1 of 12

Question: What about the “responders by week 48” value ([3]; moderate PFIC 2 patients, 280 μg/kg/day) of the same molecule?
Answer: 5 of 12

Question: And the “growth (height Z-score change relative to baseline)” value ([3]; non-responders (FIG. 4))?
Answer: did not

Question: What about the “7αC4 concentrations at 48 weeks” value ([3]; non-responders (range, 0.5-6)) of the same molecule?
Answer: 1.8 × baseline

Question: And the “duration of maintained response” value ([3]; responders, long-term extension)?
Answer: for over a year and for up to or beyond 5 years

Question: And the “weight Z-scores” value ([4]; 400 μg/kg QD then 400 μg/kg BID (FIGS. 35-36))?
Answer: dose-dependent increase in weight Z-scores

Question: And the “Change in ItchRO from Baseline to Week 48” value ([4]; ITCHRO(OBS) weekly morning average score, individual subjects (Table 18))?
Answer: −0.12 and 0.49 and −0.45 and 0.00 and −1.86 (2×) and −1.71 (2×) and −1.00 (2×) and −1.29 and −1.67 and −1.14 and −1.03 and −2.50 and −2.71 and −3.50 and −0.17 and −1.43 and −0.83

Question: And the “study days reported as minimal or no pruritus (ITCHRO(OBS)<1)” value ([4]; across participants, after 98 weeks)?
Answer: over 89%

Question: And the “Clinician xanthoma scale scores” value ([4]; all participants, by week 48 (p<0.01))?
Answer: improved significantly

Question: What about the quality of life ([4]; core study and extension) of the same molecule?
Answer: improved quality of life

Question: And the “PedsQL Multidimensional Fatigue Scale scores” value ([4]; core study and extension (p<0.01))?
Answer: Improvements were seen

Question: What about the tolerability ([4]; core study and extension, doses up to 800 μg/kg/day, up to 4 years) of the same molecule?
Answer: generally well tolerated

Question: And the “ItchRO(Obs) Weekly Morning Average Score, Change from Baseline to Week 48” value ([4]; individual subjects, one line each (Table 19))?
Answer: −1.86 (2×) and −1.71 (2×) and −1.00 (2×) and −1.29 and −1.67 and −1.14 and −1.03 and −1.43

Question: What about the “growth after dose increase” value ([4]; patients (N=15) given 400 μg/kg BID after 400 μg/kg QD for more than about 40 weeks) of the same molecule?
Answer: further increase in growth from baseline

Question: And the “sBA responders at Week 48 (N = 28), %” value ([4]; sBA Response Definition Normalization (<8.5 μmol/L))?
Answer: (3.6%)

Question: And the “sBA responders at Week 48 (N = 28), %” value ([4]; sBA Response Definition ≥80% Reduction)?
Answer: (14.3%)

Question: What about the “sBA responders at Week 48 (N = 28), %” value ([4]; sBA Response Definition ≥90% Reduction) of the same molecule?
Answer: (3.6%)
